According to ChEMBL document CHEMBL4715727, “Design, synthesis, and biological evaluation of a novel series of peripheral-selective noradrenaline reuptake inhibitors-Part 2” (Bioorg Med Chem, 2016):

Columns and labels:
[1] = target: Sodium-dependent serotonin transporter (Homo sapiens, UniProt P31645); experiment: Inhibition of human SERT expressed in CHO-K1 cells assessed as inhibition of [3H]-5-hydroxytryptamine reuptake measured after 20 mins by Microscintillation counting analysis; format: cell-based
Chain of Sodium-dependent serotonin transporter (P31645 whole entry): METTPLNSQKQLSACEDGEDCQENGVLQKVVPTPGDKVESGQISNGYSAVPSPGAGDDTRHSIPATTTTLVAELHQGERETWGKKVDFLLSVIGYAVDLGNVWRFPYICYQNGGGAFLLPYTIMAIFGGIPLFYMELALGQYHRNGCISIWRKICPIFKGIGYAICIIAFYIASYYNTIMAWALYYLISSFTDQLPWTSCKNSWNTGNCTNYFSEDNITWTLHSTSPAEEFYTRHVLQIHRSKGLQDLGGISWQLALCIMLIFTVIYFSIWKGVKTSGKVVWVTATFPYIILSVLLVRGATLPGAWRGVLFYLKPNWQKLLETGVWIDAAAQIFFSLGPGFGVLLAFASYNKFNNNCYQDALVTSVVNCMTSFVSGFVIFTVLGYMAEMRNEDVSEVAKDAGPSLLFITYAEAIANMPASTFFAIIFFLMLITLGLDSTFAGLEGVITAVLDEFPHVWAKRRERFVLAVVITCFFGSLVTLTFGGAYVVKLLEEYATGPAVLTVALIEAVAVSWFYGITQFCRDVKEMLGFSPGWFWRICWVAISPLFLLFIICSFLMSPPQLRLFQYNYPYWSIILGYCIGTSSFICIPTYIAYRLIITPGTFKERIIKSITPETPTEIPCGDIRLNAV

CYP2D6 = CYP2D6 (Homo sapiens, UniProt P10635); experiment: Inhibition of CYP2D6 (unknown origin) expressed in insect cells assessed as reduction in 1'-hydroxybufuralol formation using bufuralol as substrate at 10 uM incubated for 60 mins by LC/MS/MS analysis; format: ADME; settings: recombinant CYP2D6 expressed in insect cells, probe bufuralol
Chain of CYP2D6 (P10635 whole entry): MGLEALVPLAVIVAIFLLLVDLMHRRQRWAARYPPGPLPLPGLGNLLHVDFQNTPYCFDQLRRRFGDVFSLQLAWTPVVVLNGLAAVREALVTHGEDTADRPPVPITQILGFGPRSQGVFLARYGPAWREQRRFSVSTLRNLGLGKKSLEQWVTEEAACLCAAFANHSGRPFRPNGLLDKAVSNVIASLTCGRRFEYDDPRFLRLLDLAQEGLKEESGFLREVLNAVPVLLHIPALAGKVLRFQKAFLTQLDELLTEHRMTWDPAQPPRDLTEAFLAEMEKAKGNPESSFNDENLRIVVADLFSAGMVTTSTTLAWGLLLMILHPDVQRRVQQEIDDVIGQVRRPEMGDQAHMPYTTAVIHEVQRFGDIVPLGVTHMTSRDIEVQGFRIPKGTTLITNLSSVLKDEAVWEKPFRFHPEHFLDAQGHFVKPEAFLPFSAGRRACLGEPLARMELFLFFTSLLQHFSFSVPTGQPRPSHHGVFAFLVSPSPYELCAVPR

[2] = target: Sodium-dependent noradrenaline transporter (Homo sapiens, UniProt P23975); experiment: Inhibition of human NET expressed in CHO-K1 cells assessed as inhibition of [3H]-norepinephrine reuptake measured after 45 mins by Microscintillation counting analysis; format: cell-based
Chain of Sodium-dependent noradrenaline transporter (P23975 whole entry): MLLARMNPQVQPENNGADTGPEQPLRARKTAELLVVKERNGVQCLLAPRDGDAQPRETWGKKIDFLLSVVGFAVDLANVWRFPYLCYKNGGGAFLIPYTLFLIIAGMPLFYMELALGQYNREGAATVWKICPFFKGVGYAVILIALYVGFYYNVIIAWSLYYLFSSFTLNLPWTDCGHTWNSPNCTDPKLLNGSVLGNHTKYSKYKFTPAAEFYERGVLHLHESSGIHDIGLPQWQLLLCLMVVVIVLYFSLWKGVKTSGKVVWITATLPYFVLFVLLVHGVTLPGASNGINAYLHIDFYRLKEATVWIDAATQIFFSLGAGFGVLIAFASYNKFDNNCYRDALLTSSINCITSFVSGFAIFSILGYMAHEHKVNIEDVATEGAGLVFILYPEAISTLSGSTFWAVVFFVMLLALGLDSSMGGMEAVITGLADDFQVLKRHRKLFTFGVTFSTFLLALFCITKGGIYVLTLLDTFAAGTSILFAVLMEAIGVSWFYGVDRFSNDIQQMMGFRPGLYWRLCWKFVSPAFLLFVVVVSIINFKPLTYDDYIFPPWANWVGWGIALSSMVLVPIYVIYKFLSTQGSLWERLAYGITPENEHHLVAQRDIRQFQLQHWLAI

MDR1 (ABCB1, P-gp) = MDR1 (ABCB1, P-gp) (Homo sapiens, UniProt P08183); experiment: Substrate activity at human MDR1 expressed in LLC-PK1 cells assessed as efflux ratio of permeability from basolateral to apical side over apical to basolateral side at 10 uM measured after 2 hrs by LC/MS/MS analysis; format: ADME, cell-based
Chain of MDR1 (ABCB1, P-gp) (P08183 whole entry): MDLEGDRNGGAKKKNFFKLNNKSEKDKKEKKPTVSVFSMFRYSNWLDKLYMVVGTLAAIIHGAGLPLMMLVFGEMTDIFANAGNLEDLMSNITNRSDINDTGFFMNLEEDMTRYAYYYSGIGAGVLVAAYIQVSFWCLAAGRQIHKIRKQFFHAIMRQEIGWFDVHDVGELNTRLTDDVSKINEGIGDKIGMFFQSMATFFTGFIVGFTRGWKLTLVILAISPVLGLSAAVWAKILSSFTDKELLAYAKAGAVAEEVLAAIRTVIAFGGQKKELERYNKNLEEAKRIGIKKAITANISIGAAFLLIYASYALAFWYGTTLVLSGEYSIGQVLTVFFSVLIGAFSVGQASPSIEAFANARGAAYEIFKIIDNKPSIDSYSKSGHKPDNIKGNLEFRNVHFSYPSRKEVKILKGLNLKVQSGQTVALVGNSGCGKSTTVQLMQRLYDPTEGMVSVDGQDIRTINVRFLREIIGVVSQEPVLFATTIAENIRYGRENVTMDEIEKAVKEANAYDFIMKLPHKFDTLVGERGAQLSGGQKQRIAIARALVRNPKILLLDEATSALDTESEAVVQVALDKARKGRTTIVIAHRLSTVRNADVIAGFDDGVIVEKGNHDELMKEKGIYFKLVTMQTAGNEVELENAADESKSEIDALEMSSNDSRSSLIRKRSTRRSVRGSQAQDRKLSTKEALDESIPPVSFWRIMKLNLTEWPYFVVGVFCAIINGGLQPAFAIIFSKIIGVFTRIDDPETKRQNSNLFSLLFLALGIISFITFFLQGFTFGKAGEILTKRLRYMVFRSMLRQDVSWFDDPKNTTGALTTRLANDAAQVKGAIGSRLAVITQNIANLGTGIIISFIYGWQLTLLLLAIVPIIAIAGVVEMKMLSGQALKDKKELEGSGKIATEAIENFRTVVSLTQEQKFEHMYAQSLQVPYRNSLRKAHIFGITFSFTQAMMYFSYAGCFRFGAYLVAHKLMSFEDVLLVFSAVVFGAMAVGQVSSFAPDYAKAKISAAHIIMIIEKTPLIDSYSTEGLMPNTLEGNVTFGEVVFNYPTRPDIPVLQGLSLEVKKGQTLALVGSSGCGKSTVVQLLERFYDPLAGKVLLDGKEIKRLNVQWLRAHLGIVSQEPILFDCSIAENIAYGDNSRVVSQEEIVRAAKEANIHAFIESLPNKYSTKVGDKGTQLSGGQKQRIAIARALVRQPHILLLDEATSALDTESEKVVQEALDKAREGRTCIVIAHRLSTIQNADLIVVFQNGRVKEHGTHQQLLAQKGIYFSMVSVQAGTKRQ

[3] = target: Sodium-dependent dopamine transporter (Homo sapiens, UniProt Q01959); experiment: Inhibition of human DAT expressed in CHO-K1 cells assessed as inhibition of [3H]-dopamine reuptake measured after 60 mins by Microscintillation counting analysis; format: cell-based
Chain of Sodium-dependent dopamine transporter (Q01959 whole entry): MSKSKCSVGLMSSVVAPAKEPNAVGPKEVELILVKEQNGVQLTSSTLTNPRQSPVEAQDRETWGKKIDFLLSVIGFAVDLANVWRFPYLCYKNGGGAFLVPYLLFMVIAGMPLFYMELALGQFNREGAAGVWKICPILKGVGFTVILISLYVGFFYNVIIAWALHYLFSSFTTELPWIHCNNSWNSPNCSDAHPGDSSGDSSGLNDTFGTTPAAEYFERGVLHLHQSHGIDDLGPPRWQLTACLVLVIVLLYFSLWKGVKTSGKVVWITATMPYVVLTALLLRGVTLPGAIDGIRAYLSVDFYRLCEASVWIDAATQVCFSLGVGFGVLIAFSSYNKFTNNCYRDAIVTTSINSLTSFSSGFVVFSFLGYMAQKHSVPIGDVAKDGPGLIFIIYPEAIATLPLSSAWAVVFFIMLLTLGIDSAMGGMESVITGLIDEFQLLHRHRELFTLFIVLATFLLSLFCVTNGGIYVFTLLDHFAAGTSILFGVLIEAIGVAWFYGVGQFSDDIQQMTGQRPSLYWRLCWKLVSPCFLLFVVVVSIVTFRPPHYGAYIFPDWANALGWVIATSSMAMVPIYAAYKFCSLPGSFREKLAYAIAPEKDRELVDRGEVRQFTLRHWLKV

[4] = Permeability coefficient of the compound at 10 uM at pH 7.4 measured after 3 hrs by PAMPA based LC/MS/MS analysis; format: ADME; set-up: unit not given here; settings: pH 7.4, 3 h
Cytochrome P450 3A4 = Cytochrome P450 3A4 (Homo sapiens, UniProt P08684); experiment: Drug metabolism assessed as CYP3A4 (unknown origin) expressed in microsomes-mediated metabolism by measuring metabolic rate at 1 uM incubated for 10 mins by UPLC analysis; format: ADME, Microsome
Chain of Cytochrome P450 3A4 (P08684 whole entry): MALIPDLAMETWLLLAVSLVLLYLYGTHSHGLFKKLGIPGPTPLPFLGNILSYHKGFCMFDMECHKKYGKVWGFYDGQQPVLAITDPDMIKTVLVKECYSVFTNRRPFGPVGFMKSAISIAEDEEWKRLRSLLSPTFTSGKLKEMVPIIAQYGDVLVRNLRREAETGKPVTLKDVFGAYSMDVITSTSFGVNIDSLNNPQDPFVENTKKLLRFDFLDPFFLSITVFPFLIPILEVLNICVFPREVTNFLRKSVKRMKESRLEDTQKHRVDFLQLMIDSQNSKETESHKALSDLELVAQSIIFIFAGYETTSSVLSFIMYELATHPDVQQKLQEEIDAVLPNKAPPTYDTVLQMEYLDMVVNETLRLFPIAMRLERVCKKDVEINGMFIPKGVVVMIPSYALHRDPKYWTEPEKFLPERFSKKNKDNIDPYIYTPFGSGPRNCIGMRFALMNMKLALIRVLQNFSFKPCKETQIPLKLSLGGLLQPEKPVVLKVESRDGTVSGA

Cytochrome P450 2C19 = Cytochrome P450 2C19 (Homo sapiens, UniProt P33261); experiment: Drug metabolism assessed as CYP2C19 (unknown origin) expressed in microsomes-mediated metabolism by measuring metabolic rate at 1 uM incubated for 10 mins by UPLC analysis; format: ADME, Microsome
Chain of Cytochrome P450 2C19 (P33261 whole entry): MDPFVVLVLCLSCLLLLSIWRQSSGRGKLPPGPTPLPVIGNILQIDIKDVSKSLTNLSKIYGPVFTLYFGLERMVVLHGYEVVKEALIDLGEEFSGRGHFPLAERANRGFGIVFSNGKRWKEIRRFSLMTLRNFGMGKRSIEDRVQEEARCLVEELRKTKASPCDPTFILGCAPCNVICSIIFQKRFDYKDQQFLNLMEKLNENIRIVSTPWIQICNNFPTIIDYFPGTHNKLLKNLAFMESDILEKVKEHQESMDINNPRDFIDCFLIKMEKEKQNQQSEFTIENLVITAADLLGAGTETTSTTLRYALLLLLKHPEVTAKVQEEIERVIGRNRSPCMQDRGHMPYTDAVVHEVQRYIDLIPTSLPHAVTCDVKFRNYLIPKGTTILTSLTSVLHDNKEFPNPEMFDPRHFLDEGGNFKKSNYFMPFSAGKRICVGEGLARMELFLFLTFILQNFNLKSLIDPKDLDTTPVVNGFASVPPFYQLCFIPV

[5] = Drug metabolism assessed as CYP2B6/CYP2C9/CYP2E1/CYP2C8/CYP1A2 (unknown origin) expressed in microsomes-mediated metabolism by measuring metabolic rate at 1 uM incubated for 10 mins by UPLC analysis; format: ADME, Microsome; settings: human
Cytochrome P450 2D6 [6] = target: T1, Cytochrome P450 2D6 (Homo sapiens, UniProt P10635); experiment: Drug metabolism assessed as CYP2D6 (unknown origin) expressed in microsomes-mediated metabolism by measuring metabolic rate at 1 uM incubated for 10 mins by UPLC analysis; format: ADME, Microsome
T1 sequence (P10635 whole entry): as the sequence (P10635 whole entry) above

Cytochrome P450 2D6 [7] = target: T1, Cytochrome P450 2D6; experiment: Drug metabolism in human hepatocytes assessed as CYP2D6-mediated N-(((6S,7R)-7-(4-chloro-3-fluorophenyl)-1,4-oxazepan-6-yl)methyl)-2-hydroxyacetamide formation at 10 uM incubated for 6 hrs by LC/MS/MS anlaysis; format: ADME, cell-based, Hepatocyte
Rattus norvegicus = experiment: Anti-SUI activity in po dosed rat assessed as induction of urethral resistance by measuring increase in leak point pressure measured after 15 to 240 mins; format: functional, organism-based; settings: dose 1-10 mg/kg, time 15-240 min, tested as the 2H-labelled form
Cytochrome P450 2D6 [8] = target: T1, Cytochrome P450 2D6; experiment: Drug metabolism assessed as CYP2D6 (unknown origin)-expressed in microsomes mediated N-(((6S,7R)-7-(4-chloro-3-fluorophenyl)-1,4-oxazepan-6-yl)methyl)-2-hydroxyacetamide formation at 1 uM incubated for 10 mins by UPLC anlaysis; format: ADME, Microsome
hERG (KCNH2) = hERG (KCNH2) (Homo sapiens, UniProt Q12809); experiment: Inhibition of human ERG at 10 uM
[9] = Ex vivo receptor occupancy at NET in Sprague-Dawley rat left brain cortex assessed as [3H]nisoxetine labelling at 3 mg/kg, iv measured after 20 mins by scintillation counting analysis; format: functional
[10] = Oral bioavailability in Crl:CD(SD)(IGS) rat at 1 mg/kg measured after 8 hrs by LC/MS/MS analysis; format: ADME, organism-based; settings: in vivo

| Structure (SMILES) | IC50 [1] | inhibition at 1 h, 10 µM (CYP2D6) | IC50 [2] | efflux ratio at 2 h, 10 µM (MDR1 (ABCB1, P-gp)) | IC50 [3] | Pe [4] | Drug metabolism (Cytochrome P450 3A4) | Drug metabolism (Cytochrome P450 2C19) | Drug metabolism [5] | Drug metabolism (Cytochrome P450 2D6 [6]) | Drug metabolism (Cytochrome P450 2D6 [7]) | Activity (Rattus norvegicus) | Drug metabolism (Cytochrome P450 2D6 [8]) | inhibition at 10 µM (hERG (KCNH2)) | Occ [9] | bioavailability [10] |
| --- | --- | --- | --- | --- | --- | --- | --- | --- | --- | --- | --- | --- | --- | --- | --- | --- |
| COC(C)(C)C(=O)NC[C@@H]1CNCCO[C@H]1c1ccc(Cl)c(F)c1.Cl | 520 nM | 42% | 21 nM | 2.4 | > 1000 nM |  |  |  |  |  |  |  |  |  |  |  |
| COCCC(=O)NC[C@@H]1CNCCO[C@H]1c1ccc(Cl)c(F)c1.Cl | 890 nM | 44% | 3.9 nM | 12 | > 1000 nM | 151 |  |  |  |  |  |  |  |  |  |  |
| Cl.O=C(NC[C@@H]1CNCCO[C@H]1c1ccc(Cl)c(F)c1)C1COCCO1 (some centres not stated) | 540 nM | 66% | 2.6 nM | 3.6 | > 1000 nM |  |  |  |  |  |  |  |  |  |  |  |
| CCOCC(=O)NC[C@@H]1CNCCO[C@H]1c1ccc(Cl)c(F)c1.Cl | 220 nM | 79% | 3.3 nM | 1.4 | > 1000 nM |  | 0.026 %/min/pmol | 0.005 %/min/pmol | 0 %/min/pmol | 0.365 %/min/pmol |  |  |  |  |  |  |
| COCC(=O)NC[C@@H]1CNCCO[C@H]1c1ccc(Cl)c(F)c1.Cl | 440 nM | 48% | 3.2 nM | 2.1 | > 1000 nM | 221 | 0 %/min/pmol | 0.016 %/min/pmol | 0 %/min/pmol | 0.081 %/min/pmol | Metabolite_Detected | Dose-dependent effect | Metabolite_Detected |  |  |  |
| CCCC(=O)NC[C@@H]1CNCCO[C@H]1c1ccc(Cl)c(Cl)c1.Cl | 62 nM | 62% | 2.6 nM | 3 | > 1000 nM | 260 |  |  |  |  |  |  |  |  |  |  |
| Cl.[2H]C([2H])([2H])OCC(=O)NC[C@@H]1CNCCO[C@H]1c1ccc(Cl)c(F)c1 | 680 nM | 49% | 3.3 nM | 2.1 | > 1000 nM |  | 0.015 %/min/pmol | 0.012 %/min/pmol | 0.008 %/min/pmol | 0.035 %/min/pmol | Metabolite_Detected |  |  | 17% | 3.8% | 68% |
| Cl.O=C(NC[C@@H]1CNCCO[C@H]1c1ccc(Cl)c(F)c1)C1CCCO1 (some centres not stated) | 200 nM | 80% | 5.3 nM | 3.5 | > 1000 nM |  |  |  |  |  |  |  |  |  |  |  |
| COC(C)C(=O)NC[C@@H]1CNCCO[C@H]1c1ccc(Cl)c(F)c1.Cl (some centres not stated) | 800 nM | 33% | 8.8 nM | 1.9 | > 1000 nM |  |  |  |  |  |  |  |  |  |  |  |
| CC(=O)NC[C@@H]1CNCCO[C@H]1c1ccc(Cl)c(Cl)c1.Cl |  | 26% |  | 5 | > 1000 nM | 146 |  |  |  |  |  |  |  |  |  |  |
| CC(C)OCC(=O)NC[C@@H]1CNCCO[C@H]1c1ccc(Cl)c(F)c1.Cl | 390 nM | 66% | 4.8 nM | 1.7 | > 1000 nM |  | 0.064 %/min/pmol | 0.017 %/min/pmol | 0 %/min/pmol | 0.37 %/min/pmol |  |  |  |  |  |  |
| COCC(=O)NC[C@@H]1CNCCO[C@H]1c1ccc(Cl)c(Cl)c1.Cl | 70 nM | 70% | 1.2 nM | 2.1 | 1600 nM | 279 |  |  |  |  |  |  |  |  |  |  |
| CCC(=O)NC[C@@H]1CNCCO[C@H]1c1ccc(Cl)c(Cl)c1.Cl | 120 nM | 41% | 1.5 nM | 4.8 | > 1000 nM | 207 |  |  |  |  |  |  |  |  |  |  |
